Reference: ChEMBL document CHEMBL5465560, “Selectivity Literature for EUbOPEN Chemogenomic Library” (2024)
Each block holds one molecule with its values, some of them ahead of it.

Key:
[1] = molecular target: Dual specificity mitogen-activated protein kinase kinase 1 (Homo sapiens, UniProt Q02750); assay: Selectivity interaction (Kinase panel (literature)) EUB0001199aCl MAP2K1; conditions: at 1 µM
[2] = molecular target: T1, Serine/threonine-protein kinase greatwall (Homo sapiens) (UniProt Q96GX5); assay: Selectivity interaction (ActivX KiNativ screen (kinase selectivity in THP-1 cell lysates)) EUB0000639a MASTL; assay type: subcellular; conditions: lysate, at 0.04 µM
T1 sequence (whole entry): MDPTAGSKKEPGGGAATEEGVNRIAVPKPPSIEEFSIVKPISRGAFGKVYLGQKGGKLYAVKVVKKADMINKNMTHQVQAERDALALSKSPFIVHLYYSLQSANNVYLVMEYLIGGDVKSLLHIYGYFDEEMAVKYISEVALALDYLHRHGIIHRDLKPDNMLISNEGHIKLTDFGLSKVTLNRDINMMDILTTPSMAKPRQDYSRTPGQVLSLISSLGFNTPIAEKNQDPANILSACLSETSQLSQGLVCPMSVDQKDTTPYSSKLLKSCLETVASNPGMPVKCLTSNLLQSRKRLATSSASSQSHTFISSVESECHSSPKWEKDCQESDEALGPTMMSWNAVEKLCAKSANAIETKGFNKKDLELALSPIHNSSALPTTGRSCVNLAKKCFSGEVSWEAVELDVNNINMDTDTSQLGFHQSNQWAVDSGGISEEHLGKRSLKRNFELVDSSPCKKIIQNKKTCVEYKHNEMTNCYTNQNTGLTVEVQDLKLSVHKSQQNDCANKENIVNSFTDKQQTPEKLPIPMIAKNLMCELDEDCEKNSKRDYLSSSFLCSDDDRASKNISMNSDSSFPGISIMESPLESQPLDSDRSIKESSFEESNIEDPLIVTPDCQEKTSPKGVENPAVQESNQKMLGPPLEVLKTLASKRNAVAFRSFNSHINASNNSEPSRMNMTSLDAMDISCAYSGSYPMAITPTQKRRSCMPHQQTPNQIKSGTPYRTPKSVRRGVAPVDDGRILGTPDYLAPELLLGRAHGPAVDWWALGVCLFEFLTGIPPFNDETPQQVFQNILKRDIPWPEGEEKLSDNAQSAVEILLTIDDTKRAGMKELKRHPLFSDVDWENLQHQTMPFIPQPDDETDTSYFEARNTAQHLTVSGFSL

[3] = molecular target: Serine/threonine-protein kinase Nek7 (Homo sapiens) (UniProt Q8TDX7); assay: Selectivity interaction (KinomeScan (DiscoverX)) EUB0001049a NEK7; conditions: at 1 µM
[4] = molecular target: T2, Serine/threonine-protein kinase PLK4 (Homo sapiens) (UniProt O00444); assay: Selectivity interaction (KinomeScan (DiscoverX)) EUB0000045b PLK4
T2 sequence (whole entry): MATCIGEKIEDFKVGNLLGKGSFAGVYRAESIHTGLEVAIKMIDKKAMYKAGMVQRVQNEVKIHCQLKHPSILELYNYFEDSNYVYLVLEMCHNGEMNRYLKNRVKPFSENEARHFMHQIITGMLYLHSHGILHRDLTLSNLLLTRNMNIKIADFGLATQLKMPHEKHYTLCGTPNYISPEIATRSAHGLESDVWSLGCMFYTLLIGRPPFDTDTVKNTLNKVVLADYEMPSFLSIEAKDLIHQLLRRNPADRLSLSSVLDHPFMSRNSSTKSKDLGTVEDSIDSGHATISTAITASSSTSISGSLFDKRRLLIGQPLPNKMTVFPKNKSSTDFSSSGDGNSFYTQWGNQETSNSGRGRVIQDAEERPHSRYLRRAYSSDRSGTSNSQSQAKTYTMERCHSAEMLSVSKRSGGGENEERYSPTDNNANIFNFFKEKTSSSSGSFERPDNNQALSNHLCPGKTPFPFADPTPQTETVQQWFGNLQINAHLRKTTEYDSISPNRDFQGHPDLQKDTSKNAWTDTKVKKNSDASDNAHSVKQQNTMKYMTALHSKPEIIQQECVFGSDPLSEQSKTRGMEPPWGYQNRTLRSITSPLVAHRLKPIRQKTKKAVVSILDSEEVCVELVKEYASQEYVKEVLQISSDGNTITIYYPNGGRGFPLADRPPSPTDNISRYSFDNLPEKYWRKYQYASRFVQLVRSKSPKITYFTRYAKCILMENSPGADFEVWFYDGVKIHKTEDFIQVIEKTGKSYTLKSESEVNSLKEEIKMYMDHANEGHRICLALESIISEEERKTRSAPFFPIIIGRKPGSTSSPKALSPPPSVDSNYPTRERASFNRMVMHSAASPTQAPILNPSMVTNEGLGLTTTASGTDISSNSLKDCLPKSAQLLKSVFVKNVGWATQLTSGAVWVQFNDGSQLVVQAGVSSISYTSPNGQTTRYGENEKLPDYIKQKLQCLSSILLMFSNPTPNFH

[5] = molecular target: Serine/threonine-protein kinase NIM1 (Homo sapiens, UniProt Q8IY84); assay: Selectivity interaction (KinomeScan (DiscoverX)) EUB0000618a NIM1K; conditions: at 10 µM
[6] = molecular target: Receptor-interacting serine/threonine-protein kinase 2 (Homo sapiens, UniProt O43353); assay: Selectivity interaction (KinomeScan (DiscoverX)) EUB0001619a RIPK2; conditions: at 1 µM
Receptor-interacting serine/threonine-protein kinase 2, sequence (O43353 whole entry): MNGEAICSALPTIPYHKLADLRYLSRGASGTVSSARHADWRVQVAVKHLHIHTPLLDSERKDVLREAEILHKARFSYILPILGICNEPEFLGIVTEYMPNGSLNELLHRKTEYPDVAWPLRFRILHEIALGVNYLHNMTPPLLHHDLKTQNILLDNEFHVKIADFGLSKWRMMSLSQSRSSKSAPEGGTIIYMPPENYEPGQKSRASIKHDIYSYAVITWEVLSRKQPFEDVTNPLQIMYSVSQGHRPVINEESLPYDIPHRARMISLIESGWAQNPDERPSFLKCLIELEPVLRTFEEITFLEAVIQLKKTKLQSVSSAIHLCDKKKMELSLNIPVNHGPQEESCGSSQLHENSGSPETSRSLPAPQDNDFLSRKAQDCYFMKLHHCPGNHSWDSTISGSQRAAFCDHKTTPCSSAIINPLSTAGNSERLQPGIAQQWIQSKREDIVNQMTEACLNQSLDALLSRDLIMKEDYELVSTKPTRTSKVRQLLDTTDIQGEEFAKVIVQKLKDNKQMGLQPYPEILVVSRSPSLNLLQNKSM

Serine/threonine-protein kinase Nek7 (Homo sapiens), sequence (Q8TDX7 whole entry, looked up): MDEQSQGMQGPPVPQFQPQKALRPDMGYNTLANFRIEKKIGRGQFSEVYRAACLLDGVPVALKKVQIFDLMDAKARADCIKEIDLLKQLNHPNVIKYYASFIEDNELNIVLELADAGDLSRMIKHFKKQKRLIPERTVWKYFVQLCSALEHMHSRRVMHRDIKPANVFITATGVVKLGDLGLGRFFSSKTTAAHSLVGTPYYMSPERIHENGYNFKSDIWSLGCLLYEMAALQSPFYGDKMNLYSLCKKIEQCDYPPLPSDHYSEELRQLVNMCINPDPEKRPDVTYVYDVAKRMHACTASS
Dual specificity mitogen-activated protein kinase kinase 1, sequence (Q02750 whole entry): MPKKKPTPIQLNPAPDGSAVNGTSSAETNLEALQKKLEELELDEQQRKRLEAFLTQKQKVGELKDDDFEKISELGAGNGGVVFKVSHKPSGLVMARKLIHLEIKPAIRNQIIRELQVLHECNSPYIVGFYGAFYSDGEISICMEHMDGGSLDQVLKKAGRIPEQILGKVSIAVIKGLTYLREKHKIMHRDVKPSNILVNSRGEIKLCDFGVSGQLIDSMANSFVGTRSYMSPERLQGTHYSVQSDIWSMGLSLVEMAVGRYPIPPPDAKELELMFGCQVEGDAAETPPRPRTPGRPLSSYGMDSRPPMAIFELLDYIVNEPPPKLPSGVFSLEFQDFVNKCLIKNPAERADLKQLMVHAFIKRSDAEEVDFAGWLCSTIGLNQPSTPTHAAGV
Serine/threonine-protein kinase NIM1, sequence (Q8IY84 whole entry): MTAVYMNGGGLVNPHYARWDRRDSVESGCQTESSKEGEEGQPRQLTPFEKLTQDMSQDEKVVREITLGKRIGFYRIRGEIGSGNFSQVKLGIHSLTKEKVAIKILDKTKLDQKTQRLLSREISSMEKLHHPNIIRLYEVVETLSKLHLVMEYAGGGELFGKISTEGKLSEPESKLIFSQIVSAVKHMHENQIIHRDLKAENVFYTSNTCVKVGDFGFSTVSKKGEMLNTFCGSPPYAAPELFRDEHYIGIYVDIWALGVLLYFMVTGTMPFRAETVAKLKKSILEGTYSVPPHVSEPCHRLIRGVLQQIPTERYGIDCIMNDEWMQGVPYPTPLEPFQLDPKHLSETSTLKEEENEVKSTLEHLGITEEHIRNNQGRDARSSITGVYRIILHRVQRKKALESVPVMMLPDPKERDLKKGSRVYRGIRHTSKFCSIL

% of inhibition [1]: -4%
SMILES: CN1Cc2nccc(-c3cn(C)nc3-c3ccc(F)cc3)c2C1=O

% of inhibition [2]: 3.9%
SMILES: CC[C@@H]1[C@H](F)C(=O)N[C@@H]1COc1nccc2cc(C(N)=O)c(OC)cc12 [ZIMLOVISERTIB]

SMILES: COc1cc(Nc2nc(C)cc(-c3cnn4nc(OC)ccc34)n2)cc(C(F)(F)F)c1
% of control [3]: 83%

SMILES: C=CC(=O)Nc1cc(-n2c(=O)ccc3cnc4ccc(-c5ccc(NS(C)(=O)=O)cc5)cc4c32)ccc1C
% of control ([4]; at 1 µM): 100% | % of control ([4]; at 10 µM): 73%

SMILES: O[C@H]1CC[C@H](Nc2ncc3nc(Nc4c(F)cc(F)cc4F)n([C@H]4CCOC4)c3n2)CC1
% of control [5]: 100%

SMILES: N#Cc1cccc(-c2c[nH]c3ncnc(N4CCOCC4)c23)c1
% of control [6]: 84%
